Assay results published in ChEMBL document CHEMBL5352432, “Ad-hoc modifications of cyclic mimetics of SOCS1 protein: Structural and functional insights” (Eur J Med Chem, 2022).
Active and inactive are the calls of the source. The calls are words filed in the database; no cut-off is given here. Positions of bridges follow the written chain, without caps; N, C: chain ends. Non-standard residues stand in square brackets, D forms with d. Residues, ends and D or L forms follow the SMILES beside them. *: point of attachment. 1Nal = N[C@@H](Cc1cccc2ccccc12)C(=O)O; hArg = N=C(N)NCCCC[C@H](N)C(=O)O; Cit = NC(=O)NCCC[C@H](N)C(=O)O; Orn = NCCC[C@H](N)C(=O)O; Ac5c = NC1(C(=O)O)CCCC1; Dap = NC[C@H](N)C(=O)O; Acm = CC(=O)NC*

What was measured:
[1] = Stability of the compound in fetal bovine serum assessed as drug degradation incubated for 17 hrs by RP-HPLC analysis; format: ADME, cell-free, Bos taurus; conditions: cattle, read-out: Drug degradation
[2] = target: Tyrosine-protein kinase JAK2 (Homo sapiens, UniProt O60674); assay: Binding affinity to His-tagged JAK2 catalytic domain (826 to 1132 residues) (unknown origin) assessed as dissociation constant incubated for 30 mins by MST analysis
Sequence of Tyrosine-protein kinase JAK2 (O60674 whole entry, the tested form may be a part): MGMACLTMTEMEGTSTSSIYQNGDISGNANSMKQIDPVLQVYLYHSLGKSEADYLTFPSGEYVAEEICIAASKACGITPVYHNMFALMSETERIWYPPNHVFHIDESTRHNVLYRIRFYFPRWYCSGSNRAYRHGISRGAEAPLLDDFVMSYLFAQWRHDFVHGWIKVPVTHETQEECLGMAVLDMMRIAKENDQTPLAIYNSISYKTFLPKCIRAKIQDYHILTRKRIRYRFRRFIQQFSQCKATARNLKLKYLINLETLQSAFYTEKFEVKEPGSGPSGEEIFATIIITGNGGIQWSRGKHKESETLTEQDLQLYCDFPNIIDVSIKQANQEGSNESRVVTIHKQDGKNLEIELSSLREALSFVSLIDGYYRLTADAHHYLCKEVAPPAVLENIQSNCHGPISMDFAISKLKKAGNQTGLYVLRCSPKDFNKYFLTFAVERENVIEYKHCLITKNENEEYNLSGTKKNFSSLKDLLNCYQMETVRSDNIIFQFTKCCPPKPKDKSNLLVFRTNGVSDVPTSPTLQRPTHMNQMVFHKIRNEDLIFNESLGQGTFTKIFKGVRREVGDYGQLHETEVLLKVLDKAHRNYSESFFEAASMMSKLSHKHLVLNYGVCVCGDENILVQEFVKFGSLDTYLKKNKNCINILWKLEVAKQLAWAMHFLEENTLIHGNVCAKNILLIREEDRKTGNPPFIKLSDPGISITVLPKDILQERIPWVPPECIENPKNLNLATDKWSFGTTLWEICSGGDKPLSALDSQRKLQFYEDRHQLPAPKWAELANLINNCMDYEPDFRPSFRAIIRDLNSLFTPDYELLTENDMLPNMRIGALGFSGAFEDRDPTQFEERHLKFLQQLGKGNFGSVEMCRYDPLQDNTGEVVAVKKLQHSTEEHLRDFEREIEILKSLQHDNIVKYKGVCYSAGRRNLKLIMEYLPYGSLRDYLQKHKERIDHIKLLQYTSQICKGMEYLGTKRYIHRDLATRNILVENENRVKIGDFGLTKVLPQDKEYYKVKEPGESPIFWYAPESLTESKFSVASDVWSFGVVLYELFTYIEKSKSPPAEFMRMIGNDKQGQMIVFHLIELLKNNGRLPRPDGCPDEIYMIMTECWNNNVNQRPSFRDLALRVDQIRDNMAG

[3] = Stability of the compound in fetal bovine serum incubated for 42 hrs by RP-HPLC analysis; format: ADME, cell-free, Bos taurus; conditions: cattle
[4] = Proteolytic stability of the compound in fetal bovine serum assessed as drug degradation incubated for 42 hrs by RP-HPLC analysis; format: ADME, cell-free, Bos taurus; conditions: cattle
[5] = Stability of the compound in fetal bovine serum assessed as drug degradation incubated for 42 hrs by RP-HPLC analysis; format: ADME, cell-free, Bos taurus; conditions: cattle, read-out: Drug degradation
[6] = Proteolytic stability of the compound in fetal bovine serum assessed as drug degradation incubated for 17 hrs by RP-HPLC analysis; format: ADME, cell-free, Bos taurus; conditions: cattle, read-out: Drug degradation

SMILES	Kd [2]	Stability [3]	also measured
CC(=O)NCSC[C@@H]1NC(=O)[C@H]([C@@H](C)O)NC(=O)[C@@H](NC(C)=O)CC(=O)NC[C@@H](C(=O)N[C@@H](Cc2c[nH]cn2)C(=O)O)NC(=O)[C@H](CCCNC(=N)N)NC(=O)[C@H](Cc2cccc3ccccc23)NC(=O)[C@H]([C@@H](C)O)NC(=O)[C@H](CCC(N)=O)NC(=O)[C@H](CCCNC(=N)N)NC1=O (Ac-DTC(Acm)RQT[1Nal]R[Dap]H-OH; lactam 1-9)	–	Unstable	Activity [2]: inactive
CC(=O)NCSC[C@@H]1NC(=O)[C@H]([C@@H](C)O)NC(=O)[C@@H](NC(C)=O)CC(=O)NCCCC[C@@H](C(=O)N[C@@H](Cc2c[nH]cn2)C(=O)O)NC(=O)[C@H](CCCNC(=N)N)NC(=O)[C@H](Cc2cccc3ccccc23)NC(=O)C2(CCCC2)NC(=O)[C@H](CCC(N)=O)NC(=O)[C@H](CCCNC(=N)N)NC1=O (Ac-DTC(Acm)RQ[Ac5c][1Nal]RKH-OH; lactam 1-9)	120 µM	–	Stability [4]: Stable
CC(=O)NCSC[C@@H]1NC(=O)C2(CCCC2)NC(=O)[C@@H](NC(C)=O)CC(=O)NCCCC[C@@H](C(=O)N[C@@H](Cc2c[nH]cn2)C(=O)O)NC(=O)[C@H](CCCNC(=N)N)NC(=O)[C@H](Cc2cccc3ccccc23)NC(=O)[C@H]([C@@H](C)O)NC(=O)[C@H](CCC(N)=O)NC(=O)[C@H](CCCNC(=N)N)NC1=O (Ac-D[Ac5c]C(Acm)RQT[1Nal]RKH-OH; lactam 1-9)	260 µM	–	Stability [4]: Stable
CC(=O)NCSC[C@@H]1NC(=O)[C@H]([C@@H](C)O)NC(=O)[C@@H](NC(C)=O)CCC(=O)NCCCC[C@@H](C(=O)N[C@@H](Cc2c[nH]cn2)C(=O)O)NC(=O)[C@H](CCCNC(=N)N)NC(=O)[C@H](Cc2cccc3ccccc23)NC(=O)[C@H]([C@@H](C)O)NC(=O)[C@H](CCC(N)=O)NC(=O)[C@H](CCCNC(=N)N)NC1=O (Ac-ETC(Acm)RQT[1Nal]RKH-OH; lactam 1-9)	52 µM	Stable	–
CC(=O)NCSC[C@@H]1NC(=O)[C@H]([C@@H](C)O)NC(=O)[C@@H](NC(C)=O)CCC(=O)NC[C@@H](C(=O)N[C@@H](Cc2c[nH]cn2)C(=O)O)NC(=O)[C@H](CCCNC(=N)N)NC(=O)[C@H](Cc2cccc3ccccc23)NC(=O)[C@H]([C@@H](C)O)NC(=O)[C@H](CCC(N)=O)NC(=O)[C@H](CCCNC(=N)N)NC1=O (Ac-ETC(Acm)RQT[1Nal]R[Dap]H-OH; lactam 1-9)	71 µM	Stable	–
CC(=O)NCSC[C@@H]1NC(=O)[C@H]([C@@H](C)O)NC(=O)[C@@H](NC(C)=O)CCC(=O)NCCC[C@@H](C(=O)N[C@@H](Cc2c[nH]cn2)C(=O)O)NC(=O)[C@H](CCCNC(=N)N)NC(=O)[C@H](Cc2cccc3ccccc23)NC(=O)[C@H]([C@@H](C)O)NC(=O)[C@H](CCC(N)=O)NC(=O)[C@H](CCCNC(=N)N)NC1=O (Ac-ETC(Acm)RQT[1Nal]R[Orn]H-OH; lactam 1-9)	–	Unstable	Activity [2]: inactive
CC(=O)NCSC[C@@H]1NC(=O)[C@H]([C@@H](C)O)NC(=O)[C@@H](NC(C)=O)CCCCNC(=O)C[C@@H](C(=O)N[C@@H](Cc2c[nH]cn2)C(=O)O)NC(=O)[C@H](CCCNC(=N)N)NC(=O)[C@H](Cc2cccc3ccccc23)NC(=O)[C@H]([C@@H](C)O)NC(=O)[C@H](CCC(N)=O)NC(=O)[C@H](CCCNC(=N)N)NC1=O (Ac-KTC(Acm)RQT[1Nal]RDH-OH; lactam 1-9)	160 µM	–	metabolised at 17 h [6]: 100%

Second part, led by results:

Kd [2]	Stability [3]	SMILES	also measured
36 µM	–	CC(=O)NCSC[C@@H]1NC(=O)[C@H]([C@@H](C)O)NC(=O)[C@@H](NC(C)=O)CC(=O)NCCCC[C@@H](C(=O)N[C@@H](Cc2c[nH]cn2)C(=O)O)NC(=O)[C@H](CCCNC(=N)N)NC(=O)[C@H](Cc2cccc3ccccc23)NC(=O)[C@H]([C@@H](C)O)NC(=O)[C@H](CCC(N)=O)NC(=O)[C@H](CCCNC(=N)N)NC1=O (Ac-DTC(Acm)RQT[1Nal]RKH-OH; lactam 1-9)	metabolised at 17 h [1]: 30%
36 µM	–	CC(=O)NCSC[C@@H]1NC(=O)[C@H]([C@@H](C)O)NC(=O)[C@@H](NC(C)=O)CC(=O)NCCCC[C@@H](C(=O)N[C@@H](Cc2c[nH]cn2)C(=O)O)NC(=O)[C@H](CCCNC(=N)N)NC(=O)[C@H](Cc2cccc3ccccc23)NC(=O)[C@H]([C@@H](C)O)NC(=O)[C@H](CCCNC(N)=O)NC(=O)[C@H](CCCNC(=N)N)NC1=O (Ac-DTC(Acm)R[Cit]T[1Nal]RKH-OH; lactam 1-9)	metabolised at 17 h [1]: 50%
31 µM	Stable	CC(=O)NCSC[C@@H]1NC(=O)[C@H]([C@@H](C)O)NC(=O)[C@@H](NC(C)=O)CC(=O)NCCCC[C@@H](C(=O)N[C@@H](Cc2c[nH]cn2)C(=O)O)NC(=O)[C@H](CCCCNC(=N)N)NC(=O)[C@H](Cc2cccc3ccccc23)NC(=O)[C@H]([C@@H](C)O)NC(=O)[C@H](CCCNC(N)=O)NC(=O)[C@H](CCCNC(=N)N)NC1=O (Ac-DTC(Acm)R[Cit]T[1Nal][hArg]KH-OH; lactam 1-9)	–
32 µM	–	CC(=O)NCSC[C@@H]1NC(=O)[C@H]([C@@H](C)O)NC(=O)[C@@H](NC(C)=O)CC(=O)NCCCC[C@@H](C(=O)N[C@@H](Cc2c[nH]cn2)C(=O)O)NC(=O)[C@H](CCCNC(=N)N)NC(=O)[C@H](Cc2cccc3ccccc23)NC(=O)[C@H]([C@@H](C)O)NC(=O)[C@H](CCCN)NC(=O)[C@H](CCCNC(=N)N)NC1=O (Ac-DTC(Acm)R[Orn]T[1Nal]RKH-OH; lactam 1-9)	metabolised at 17 h [1]: 30%; metabolised at 42 h [5]: 100%
39 µM	Stable	CC(=O)NCSC[C@@H]1NC(=O)[C@H]([C@@H](C)O)NC(=O)[C@@H](NC(C)=O)CC(=O)NCCCC[C@@H](C(=O)N[C@@H](Cc2c[nH]cn2)C(=O)O)NC(=O)[C@H](CCCCNC(=N)N)NC(=O)[C@H](Cc2cccc3ccccc23)NC(=O)[C@H]([C@@H](C)O)NC(=O)[C@H](CCCN)NC(=O)[C@H](CCCNC(=N)N)NC1=O (Ac-DTC(Acm)R[Orn]T[1Nal][hArg]KH-OH; lactam 1-9)	–
